Reference: patent publication US10336762B2 (priority 2017, dated 2019)
Read-outs that look alike come from different tables or passages of the source.

Key:
TNFα = test: cells; type: cell-based, human; details: LPS-stimulated human monocytes, read-out: EC50 TNF
IRAK4 enzyme = IRAK4 enzyme (Homo sapiens (Human), UniProt Q9NWZ3); test: biochemical; type: biochemical; details: IRAK4 enzyme, 500 μM ATP
[1] = Homo sapiens, Monocyte, TNFα by TR-FRET
[2] = Homo sapiens, Monocyte, TNFα content

Chain of IRAK4 enzyme (Q9NWZ3 whole entry): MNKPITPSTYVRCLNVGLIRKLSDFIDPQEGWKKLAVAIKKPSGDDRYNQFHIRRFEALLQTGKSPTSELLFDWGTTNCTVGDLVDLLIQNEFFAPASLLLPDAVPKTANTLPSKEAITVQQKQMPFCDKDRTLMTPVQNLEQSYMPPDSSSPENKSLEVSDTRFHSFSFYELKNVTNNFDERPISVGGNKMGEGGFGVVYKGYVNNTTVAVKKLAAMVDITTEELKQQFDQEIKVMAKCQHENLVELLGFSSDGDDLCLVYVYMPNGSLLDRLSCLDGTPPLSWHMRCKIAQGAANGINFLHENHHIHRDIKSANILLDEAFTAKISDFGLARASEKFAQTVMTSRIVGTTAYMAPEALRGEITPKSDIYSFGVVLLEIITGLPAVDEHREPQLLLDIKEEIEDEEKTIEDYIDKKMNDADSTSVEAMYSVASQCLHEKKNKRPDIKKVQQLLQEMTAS

| SMILES | EC50 (TNFα; [1]) [µM] | IC50 (IRAK4 enzyme; TR-FRET) [µM] | EC50 (TNFα; [2]) [µM] | IC50 (IRAK4 enzyme; TR-FRET (HTRF)) [µM] | EC50 (TNFα; TNFα content) [µM] |
| --- | --- | --- | --- | --- | --- |
| CC(C)(O)[C@H](F)CNC(=O)c1cnc(-c2ccc3cc(C#N)cnn23)cc1Nc1cnn([C@@H]2CNC[C@@H]2F)c1 [Example 883, 6-(3-cyanopyrrolo[1,2-b]pyridazin-7-yl)-N-((R)-2-fluoro-3-hydroxy-3-methylbutyl)-4-((1-((3R,4S)-4-fluoro-pyrrolidin-3-yl)-1H-pyrazol-4-yl)amino) nicotinamide] | 0.09 | < 0.001 |  |  |  |
| CC(C)(O)[C@H](F)CNC(=O)c1cnc(-c2ccc3cc(C#N)cnn23)cc1NCC1CC1(F)F (stereo partly drawn) [Example 137, 6-(3-cyanopyrrolo[1,2-b]pyridazin-7-yl)-4-(((2,2-difluorocyclopropyl)methyl)amino)-N-((R)-2-fluoro-3-hydroxy-3-methylbutyl)nicotinamide] |  | 0.002 | 0.14 |  |  |
| CN(C)C(=O)[C@H](F)CNC(=O)c1cnc(-c2ccc3cc(C#N)cnn23)cc1NC12CCC(O)(CC1)CC2 [Example 946, (R)-6-(3-cyanopyrrolo[1,2-b]pyridazin-7-yl)-N-(3-(dimethylamino)-2-fluoro-3-oxopropyl)-4-((4-hydroxybicyclo[2.2.2]octan-1-yl)amino) nicotinamide] | 0.12 | 0.001 |  |  |  |
| COC(=O)NC(C)(C)CCNc1cc(-c2ccc3cc(C#N)cnn23)ncc1C(=O)NC[C@@H](F)C(C)(C)O [Example 727, (R)-methyl (4-((2-(3-cyanopyrrolo[1,2-b]pyridazin-7-yl)-5-((2-fluoro-3-hydroxy-3-methylbutyl)carbamoyl)pyridin-4-yl)amino)-2-methylbutan-2-yl)carbamate] |  |  | 0.203 | 0.003 |  |
| N#CCNC(=O)c1cnc(-c2ccc3cc(C#N)cnn23)cc1NC1COC1 [Example 460, N-(cyanomethyl)-6-(3-cyanopyrrolo[1,2-b]pyridazin-7-yl)-4-(oxetan-3-ylamino) nicotinamide] |  |  | 0.071 | < 0.001 |  |
| CC(C)(O)[C@H](F)CNC(=O)c1cnc(-c2ccc3cc(C#N)cnn23)cc1NC1CCC2(CC1)COC2 [Example 781, (R)-4-(2-oxaspiro[3.5]nonan-7-ylamino)-6-(3-cyanopyrrolo[1,2-b]pyridazin-7-yl)-N-(2-fluoro-3-hydroxy-3-methyl-butyl)nicotinamide] |  |  | 0.09 | < 0.001 |  |
| CC(C)(O)[C@H](F)CNC(=O)c1cnc(-c2ccc3cc(C#N)cnn23)cc1N[C@H]1C[C@H](CNC(=O)C2(F)CC2)C1 [Example 828, 6-(3-cyanopyrrolo[1,2-b]pyridazin-7-yl)-N-((R)-2-fluoro-3-hydroxy-3-methylbutyl)-4-(((1r,3R)-3-((1-fluorocyclopropane-1-carboxamido)methyl)cyclobutyl)amino) nicotinamide] | 0.012 | < 0.001 |  |  |  |
| N#Cc1cnn2c(-c3cc(NC45CCC(O)(CC4)CC5)c(C(=O)NCC(=O)N4CCC(O)C4)cn3)ccc2c1 [Example 944, (S)-6-(3-cyano-pyrrolo[1,2-b]pyridazin-7-yl)-4-((4-hydroxy-bicyclo[2.2.2]octan-1-yl)amino)-N-(2-(3-hydroxypyrrolidin-1-yl)-2-oxoethyl) nicotinamide] | 0.209 | < 0.001 |  |  |  |
| COC[C@@H]1CCCN1c1ccc(Nc2cc(-c3ccc4cc(C#N)cnn34)ncc2C(=O)NC[C@@H](F)C(C)(C)O)cn1 [Example 884, 6-(3-cyanopyrrolo[1,2-b]pyridazin-7-yl)-N-((R)-2-fluoro-3-hydroxy-3-methylbutyl)-4-((6-((S)-2-(methoxymethyl)pyrrolidin-1-yl)pyridin-3-yl)amino)nicotinamide] | 0.029 | 0.002 |  |  |  |
| CC(C)(O)[C@H](F)CNC(=O)c1cnc(-c2ccc3cc(C#N)cnn23)cc1Nc1ncc(F)cn1 [Example 584, (R)-6-(3-cyanopyrrolo[1,2-b]pyridazin-7-yl)-N-(2-fluoro-3-hydroxy-3-methylbutyl)-4-((5-fluoro-pyrimidin-2-yl)amino)nicotinamide] |  |  | 0.274 | 0.004 |  |
| CC(C)(O)[C@H](F)CNC(=O)c1cnc(-c2ccc3cc(C#N)cnn23)cc1Nc1ccc2ncccc2c1 [Example 820, (R)-6-(3-cyanopyrrolo[1,2-b]pyridazin-7-yl)-N-(2-fluoro-3-hydroxy-3-methylbutyl)-4-(quinolin-6-ylamino)nicotinamide] | 0.059 | < 0.001 |  |  |  |
| CC(C)(O)[C@H](F)CNC(=O)c1cnc(-c2ccc3cc(C#N)cnn23)cc1N[C@H]1CCCNC1 [Example 258, 6-(3-cyanopyrrolo[1,2-b]pyridazin-7-yl)-N-((R)-2-fluoro-3-hydroxy-3-methylbutyl)-4-(((S)-piperidin-3-yl)amino)nicotinamide] |  | 0.001 | 0.083 |  |  |
| CC(C)(O)[C@H](F)CNC(=O)c1cnc(-c2ccc3cc(C#N)cnn23)cc1N[C@H]1C[C@H](CNC(=O)C23CC(C2)C3)C1 [Example 937, 4-(((1r,3R)-3-((bicyclo[1.1.1]pentane-1-carboxamido)methyl)cyclobutyl)amino)-6-(3-cyanopyrrolo[1,2-b]pyridazin-7-yl)-N-((R)-2-fluoro-3-hydroxy-3-methylbutyl)nicotinamide] | 0.133 | 0.002 |  |  |  |
| CC(C)(O)[C@H](F)CNC(=O)c1cnc(-c2ccc3cc(C#N)cnn23)cc1Nc1ccc(N2CC3CC(C2)O3)nc1 [Example 922, 4-((6-(6-oxa-3-azabicyclo[3.1.1]heptan-3-yl)pyridin-3-yl)amino)-6-(3-cyanopyrrolo[1,2-b]pyridazin-7-yl)-N-((R)-2-fluoro-3-hydroxy-3-methylbutyl)nicotinamide] | 0.042 | < 0.001 |  |  |  |
| CC(C)(O)[C@H](F)CNC(=O)c1cnc(-c2ccc3cc(C#N)cnn23)cc1Nc1cnc2c(c1)COCC2 [Example 862, (R)-6-(3-cyanopyrrolo[1,2-b]pyridazin-7-yl)-4-((7,8-dihydro-5H-pyrano[4,3-b]pyridin-3-yl)amino)-N-(2-fluoro-3-hydroxy-3-methylbutyl)nicotinamide] | 0.046 | < 0.001 |  |  |  |
| CC(C)(CCNC(=O)c1cnc(-c2ccc3cc(C#N)cnn23)cc1NC12CCC(O)(CC1)CC2)NS(C)(=O)=O [Example 342, 6-(3-cyanopyrrolo[1,2-b]pyridazin-7-yl)-4-((4-hydroxybicyclo[2.2.2]octan-1-yl)amino)-N-(3-methyl-3-(methyl-sulfonamido)butyl) nicotinamide] |  | 0.001 | 0.083 |  |  |
| CC(C)(C)OC(=O)CNC(=O)c1cnc(-c2ccc3cc(C#N)cnn23)cc1NC12CCC(O)(CC1)CC2 [Example 808, tert-butyl (6-(3-cyano-pyrrolo[1,2-b]pyridazin-7-yl)-4-((4-hydroxy-bicyclo[2.2.2]octan-1-yl)amino)nicotinoyl) glycinate] | 0.015 | < 0.001 |  |  |  |
| CC(C)(O)[C@H](F)CNC(=O)c1cnc(-c2ccc3cc(C#N)cnn23)cc1N[C@@H]1CCCNC1 [Example 255, 6-(3-cyanopyrrolo[1,2-b]pyridazin-7-yl)-N-((R)-2-fluoro-3-hydroxy-3-methylbutyl)-4-(((R)-piperidin-3-yl)amino)nicotinamide] |  | 0.014 | 1.27 |  |  |
| CC(C)(C)c1cc(Nc2cc(-c3ccc4cc(C#N)cnn34)ncc2C(=O)NC[C@@H](F)C(C)(C)O)on1 [Example 360, (R)-4-((3-(tert-butyl)isoxazol-5-yl)amino)-6-(3-cyanopyrrolo[1,2-b]pyridazin-7-yl)-N-(2-fluoro-3-hydroxy-3-methyl-butyl)nicotinamide] |  | 0.002 | > 10 |  |  |
| Cc1ncc(C2CCC(Nc3cc(-c4ccc5cc(C#N)cnn45)ncc3C(=O)NC[C@@H](F)C(C)(C)O)CC2)o1 (single isomer, unassigned) [Example 645] |  |  |  | 0.01 | 0.301 |
| COC(=O)NC1CC2(C1)CC(Nc1cc(-c3ccc4cc(C#N)cnn34)ncc1C(=O)NC[C@@H](F)C(C)(C)O)C2 (single isomer, unassigned) [Example 757] |  |  |  | < 0.001 | 0.012 |
| N#CCNC(=O)c1cnc(-c2ccc3cc(C#N)cnn23)cc1N[C@H]1CCC[C@@H](O)C1 [Example 459, N-(cyanomethyl)-6-(3-cyanopyrrolo[1,2-b]pyridazin-7-yl)-4-(((1S,3R)-3-hydroxycyclohexyl)amino) nicotinamide] |  |  | 0.125 | 0.001 |  |
| CC(=O)NC12CC(Nc3cc(-c4ccc5cc(C#N)cnn45)ncc3C(=O)NC[C@@H](F)C(C)(C)F)(C1)C2 [Example 494, (R)-4-((3-acetamido-bicyclo[1.1.1]pentan-1-yl)amino)-6-(3-cyano-pyrrolo[1,2-b]pyridazin-7-yl)-N-(2,3-difluoro-3-methylbutyl)nicotinamide] |  |  | 0.044 | < 0.001 |  |
| CC(C)Nc1cc(-c2ccc3cc(C#N)cnn23)ncc1C(=O)N[C@H]1CCC[C@@H](O)C1 [Example 190, 6-(3-cyanopyrrolo[1,2-b]pyridazin-7-yl)-N-((1S,3R)-3-hydroxycyclohexyl)-4-(isopropylamino) nicotinamide] |  | 0.008 | 0.209 |  |  |
| Cn1ccc(CNC(=O)c2cnc(-c3ccc4cc(C#N)cnn34)cc2NC23CCC(O)(CC2)CC3)n1 [Example 935, 6-(3-cyanopyrrolo[1,2-b]pyridazin-7-yl)-4-((4-hydroxybicyclo[2.2.2]octan-1-yl)amino)-N-((1-methyl-1H-pyrazol-3-yl)methyl)nicotinamide] | 0.153 | 0.002 |  |  |  |
| N#Cc1cnn2c(-c3cc(NC45CCC(O)(CC4)CC5)c(C(=O)NCC(=O)N4CC(F)(F)C4)cn3)ccc2c1 [Example 331, 6-(3-cyanopyrrolo[1,2-b]pyridazin-7-yl)-N-(2-(3,3-difluoroazetidin-1-yl)-2-oxoethyl)-4-((4-hydroxybicyclo[2.2.2]octan-1-yl)amino) nicotinamide] |  | < 0.001 | 0.025 |  |  |
